Experiment: Stability in the presence of ferric EDTA (Fe-catalyzed hydrogen peroxide decomposition)
Format: physicochemical
Conditions: with ferric EDTA; for hydrogen peroxide concentration: diluted with tap water
Method: Approximately 250 μL of a 3% solution of ferric EDTA (ethylenediaminetetracetic acid), at pH 7, was added to 3.5 grams of the composition obtained from EXAMPLE I.
The same amount of ferric EDTA was added to 3.5 grams of a 27.5% wt H2O2 solution. Both the 3.5 grams of the composition according to EXAMPLE I and the 3.5 grams H2O2 solution, both containing the ferric EDTA, were diluted with a quantity of tap water until the water contained 50 ppm of H2O2, determined with colorimetric reagent strips (Merck).
The following table indicates the evolution of the hydrogen peroxide concentration (ppm) in both samples.

- gas bubbles indicating Fe-catalyzed hydrogen peroxide decomposition (diluted to 50 ppm H2O2): appeared almost instantly
- hydrogen peroxide concentration (0 h): 50 ppm
- hydrogen peroxide concentration (4 h): 20 ppm
- hydrogen peroxide concentration (18 h): 15 ppm
Substance: H2O2 [Diluted H2O2]
